System: ECL cells
Assay: labelling index of ECL cells (HDC+PCNA double labelling) in oxyntic mucosa after 14 days once-daily treatment
Type: in vivo, male SPF Wistar rats
Details: rats, 25 mg/kg p.o. once daily for 14 days; compared with control group
Procedure: This was measured according to the following experimental protocol. 40 male SPF Wistar rats (200 g) were divided into 4 treatment groups and 2 strata. The treatment of the 20 rats in the second stratum started 2 weeks after the treatment of the first stratum. The design of the study was completely randomised double blind with individual blinding; all rats were placed in a separate cage. Animals had continuous access to water and food. Animals were treated once daily during 14 days: [table] After removal of the fundus, the stomach were rinsed with phosphate buffered saline prior to fixation with 4% formalin in Millonig buffer. After 4 hours immersion in fixative solutions at room temperature, tissue was rinsed in phosphate buffered saline (PBS), dehydrated and embedded in paraffin using the Leitz paraffin embedding station (Leitz TP 1050; Germany) dehydration module and paraffin embedding module (Leitz EG 1160; Germany). Cross sections (3 μm thick) of the oxyntic part of the stomach were made at 3 levels, each separated by a distance of 400 μm. The following indirect immunofluorescence labeling method was used: removal of paraffin and rehydratation of the sections followed by a blocking step primary antibodies: polyclonal guinea pig anti-histidine decarboxylase, 1/2000 (from Euro-Diagnostica) and monoclonal mouse anti PCNA 1/2500 (Clone PC10 from Sigma). […]

SMILES: COCCCOc1ccnc(C[S+]([O-])c2nc3ccccc3[nH]2)c1C (stereo not shown) [rebeprazole, 2-[[4-(3-methoxypropoxy)-3-methylpyridin-2-yl]methylsulfinyl]-1H-benzimidazole]
- labelling index of ECL cells, Mann-Whitney test P, treated group versus control group: 0.04

Source: patent US20030195240A1, “Pharmaceutical compositions comprising proton pump inhibitors and gastrin/cholecystokinin receptor ligands” (priority 2000, published 2003)
